According to patent publication US7718393B2, “Method for determining the efficacy of an anthracycline anticancer agent” (Sysmex Corporation, priority 2006, dated 2010):

How the values were obtained:
Assay type in all cases: cell-based, human
MDA-MB-231 = test: Cell growth test with or without doxorubicin, MDA-MB-231; conditions: MDA-MB-231, 1 μM doxorubicin, FIGS. 6 and 11
Description: (§1) Human breast cancer cells MCF-7, T47-D, SK-B-3, SK-Br-3, MDA-MB-231 and MDA-MB-468 were purchased from American Type Culture Collection (ATCC). 38 cancer cell samples (Nos. 1 to 38) were excised from 38 breast cancer patients with invasive breast cancer classified in stages I to IIIb according to the breast cancer stage classification. The 38 breast cancer patients are those who after removal of cancer tissue, received chemotherapy consisting essentially of administration of anthracycline anticancer agents. Each human breast cancer cell or cancer tissue was proliferated in Eagle's modified minimum essential medium (GIBCO) (hereinafter referred to merely as medium) containing 10% FCS (Commonwealth Laboratories), 1% (v/v) nonessential amino acid (GIBCO), 2 mM L-glutamine (Sigma Chemical), 100 μg/ml streptomycin (GIBCO), 100 U/ml penicillin (GIBCO) and 0.28 μg/ml fungizone (Squib Pharmaceuticals) in a humidified atmosphere of 5% CO2/95% air at 37° C. 3.0×10^3 human breast cancer cells or cancer tissue were inoculated onto a medium in a 96-well plate and cultured for 1 day in a humidified atmosphere of 5% CO2/95% air at 37° C. Thereafter, the medium was exchanged with a medium with or without 1 μM doxorubicin. Cell proliferation after 0, 24, 48 and 72 hours was measured by using a cell proliferation assay kit (Nippon Chemi-Con Corporation) or Cell Titer-Glo Luminescent Cell Viability assay (Promega) in accordance with its manufacturer's instructions.

MCF-7 = test: Cell growth test with or without doxorubicin, MCF-7; conditions: MCF-7, 1 μM doxorubicin, FIG. 3
Description: as §1

MDA-MB-453 = test: Cell growth test with or without doxorubicin, MDA-MB-453; conditions: MDA-MB-453, 1 μM doxorubicin, FIG. 8
MDA-MB-468 = test: Cell growth test with or without doxorubicin, MDA-MB-468; conditions: MDA-MB-468, 1 μM doxorubicin, FIGS. 7 and 9
Description: as §1, with “Thereafter, the medium was exchanged with a medium with or without 1 μM doxorubicin.” left out

T47-D = test: Cell growth test with or without doxorubicin, T47-D; conditions: 1 μM doxorubicin, FIG. 4
Description: as §1, with “Thereafter, the medium was exchanged with a medium with or without 1 μM doxorubicin.” left out

SK-Br-3 = test: Cell growth test with or without doxorubicin, SK-Br-3; conditions: SK-Br-3, 1 μM doxorubicin, FIGS. 5 and 10
Description: as §1, with “Thereafter, the medium was exchanged with a medium with or without 1 μM doxorubicin.” left out

SMILES: COc1cccc2c1C(=O)c1c(O)c3c(c(O)c1C2=O)C[C@@](O)(C(=O)CO)C[C@@H]3O[C@H]1C[C@H](N)[C@H](O)[C@H](C)O1 [doxorubicin]
- Cell proliferation as compared with the control (MDA-MB-231; 0 to 72 hours): suppressed
- Living cells from 0 hour after administration (MDA-MB-231; 0 to 72 hours): hardly changed or are increased
- Induction of apotosis (MDA-MB-231): very low
- Cell proliferation as compared with the control (MCF-7; 0 to 72 hours): suppressed
- Living cells from 0 hour after administration (MCF-7; 0 to 72 hours): hardly changed or are increased
- Induction of apotosis (MCF-7): very low
- Living cells from 0 hour after administration (MDA-MB-453; 0 to 72 hours): gradually decreased with time
- Induction of apotosis (MDA-MB-453; 72 hours): so high that the living cells hardly remain after 72 hours
- Living cells from 0 hour after administration (MDA-MB-468; 0 to 72 hours): gradually decreased with time
- Induction of apotosis (MDA-MB-468): induced, but the effect thereon can be seen to be lower
- Living cells from 0 hour after administration (T47-D; 0 to 72 hours): gradually decreased with time
- Induction of apotosis (T47-D): induced, but the effect thereon can be seen to be lower
- Living cells from 0 hour after administration (SK-Br-3; 0 to 72 hours): gradually decreased with time
- Induction of apotosis (SK-Br-3; 72 hours): so high that the living cells hardly remain after 72 hours
